# Counter-ions that a name gives are not always drawn.
# Tested on: isolated rat aorta
# Assay: Calcium inhibitory properties: contractile response to potassium-induced depolarization on isolated rat aorta
# Set-up: species or system isolated organ, male Wistar rats
# Conditions: for activity at 0.1 µM: 10^-7 M; for activity at 0.01 µM: 10^-8 M; for activity at 1 µM: 10^-6 M; for % of the maximum contractional effect: head printed "10^-" (exponent missing; first of three columns before 10^-6 M), 60 min
# Text: It is well established that the depolarization of a smooth muscle membrane by potassium renders the latter permeable to extracellular calcium and induces muscle contraction. Consequently, the measurement of the inhibition of the contractile response to depolarization by potassium, or the measurement of a relaxation of the tonic contraction on potassium depolarization, can represent an evaluation of the power of a compound as an inhibitor of the membrane permeability to Ca^++ ions. The technique used was as follows: The aorta was removed from male Wistar rats weighing approximately 300 g, and cut into strips approximately 40 mm long and 3 mm wide. These fragments were placed in a 25-ml isolated organ trough containing a modified Krebs-bicarbonate solution (112 mM NaCl; 5 mM KCl; 25 mM NaHCO3; 1 mM KH2 PO4; 1.2 mM MgSO4; 2.5 mM CaCl2; 11.5 mM glucose, distilled water to 1000 ml) through which a stream of 5-7% carbon dioxide in oxygen was passed, and maintained at 37° C. The preparation was connected to a force microsensor and the contractile response recorded after amplification on a recorder. A tension of 2 g was applied to the preparation. This tension was maintained for 60 minutes in the modified Krebs-bicarbonate solution, and contractions were then induced by replacing the Krebs-bicarbonate solution by a potassium-Krebs solution (17 mM NaCl; 100 mM KCl; 25 mM NaHCO3; 1 mM KH2 PO4; 1.2 mM MgSO4; 2.5 mM CaCl2; 11.5 mM glucose; distilled water to 1000 ml). When the contractile response of the preparation had become reproducible, a given amount of a compound of the invention was introduced into the bath. Sixty minutes later, a new spasm was induced by potassium depolarization. The results obtained on the aorta used in the experiment were then expressed as a percentage of the maximum contractional effect before incubation with the test substance. By way of examples, the results which follow were obtained, the compounds of formula (1) being in the form of the base, hydrochloride or oxalate.
# [1] = Rattus norvegicus, 1 h, read-out: % of the maximum contractional effect
Structure (SMILES),activity at 0.1 µM [1] [%],activity at 0.01 µM [1] [%],activity at 1 µM [1] [%],Activity ratio (compound / Compound D),"activity at 0.001 µM (Rattus norvegicus, 1 h, 10^-9 M, read-out: % of the maximum contractional effect) [%]",% of the maximum contractional effect [%]
"CCCCN(CCCC)CCCOc1ccc([S+]([O-])c2c(C(C)C)cn3ccccc23)cc1 (racemic) [Ex. 54, 4-[3-(di-n-butylamino)propyl]oxyphenyl(2-isopropyl-1-indolizinyl)sulphoxide oxalate]",74.3,82.4,–,–,–,–
"CCc1cn2ccccc2c1S(=O)(=O)c1ccc(OCCCNC(C)(C)C)cc1 [Ex. 3, 2-ethyl-1-{4-[3-(tert-butylamino)propyloxy]benzenesulphonyl}indolizine hydrochloride]",–,–,30.7,–,–,–
"CCN(CC)CCCOc1ccc(S(=O)(=O)c2c(C)cn3ccccc23)cc1 [Ex. 4, 2-Methyl-1-{4-[3-(diethylamino)propyloxy]benzenesulphonyl}indolizine oxalate]",–,–,77.2,–,–,–
"CCCN(CCC)CCCOc1ccc(S(=O)(=O)c2c(C)cn3ccccc23)cc1 [Ex. 5, 2-Methyl-1-{4-[3-(di-n-propylamino)propyloxy]benzenesulphonyl}indolizine]",–,–,48.9,–,–,–
"CCCCN(CCCC)CCCOc1c(C)cc(S(=O)(=O)c2c(CC)cn3ccccc23)cc1C.Cl [Ex. 10, 2-Ethyl-1-{4-[3-(di-n-butylamino)propyloxy]-3,5-dimethylbenzenesulphonyl}indolizine hydrochloride]",49,82.6,2.9,2.2,–,–
"CCCCN(CCCC)CCCOc1ccc(S(=O)(=O)c2c(C(C)(C)C)cn3ccccc23)cc1 [Ex. 16, 2-tert-Butyl-1-{4-[3-(di-n-butylamino)propyloxy]-benzenesulphonyl}indolizine]",35.8,78.7,–,–,–,–
"CCCCN(CCCC)CCOc1ccc(S(=O)(=O)c2c(CC)cn3ccccc23)cc1 [Ex. 22, 2-Ethyl-1-{4-[2-(di-n-butylamino)ethyloxy]benzenesulphonyl}indolizine hydrochloride]",37,90.2,–,–,–,–
"CC(C)(C)NCCCOc1ccc(S(=O)(=O)c2c(-c3ccccc3)cn3ccccc23)cc1 [Ex. 24, 2-Phenyl-1-{4-[3-(tert-butylamino)propyloxy]benzenesulphonyl}indolizine hydrochloride]",–,–,62.1,–,–,–
"Cc1cc(S(=O)(=O)c2c(-c3ccccc3)cn3ccccc23)ccc1OCCCNC(C)(C)C [Ex. 25, 2-Phenyl-1-{4-[3-(tert-butylamino)propyloxy]-3-methylbenzenesulphonyl}indolizine hydrochloride]",–,–,67.7,–,–,–
"CC(C)c1cn2ccccc2c1S(=O)(=O)c1ccc(OCCCNCCc2ccccc2)cc1 [Ex. 31, 2-Isopropyl-1-{4-[3-(β-phenethylamino)propyloxy]benzenesulphonyl}indolizine hydrochloride]",31.8,73.9,16.8,–,–,–
"CC(C)c1cn2ccccc2c1S(=O)(=O)c1ccc(OCCCNCc2ccccc2)cc1 [Ex. 32, 2-Isopropyl-1-{4-[3-(benzylamino)propyloxy]benzenesulphonyl}indolizine hydrochloride]",19.4,65.9,3.6,–,–,–
"CC(C)c1cn2ccccc2c1S(=O)(=O)c1ccc(OCCCN2CCN(c3ccccc3)CC2)cc1 [Ex. 33, 2-Isopropyl-1-{4-[3-(N-phenylpiperazino)propyloxy]benzenesulphonyl}indolizine]",57.6,87,24.6,–,–,–
"CC(C)c1cn2ccccc2c1S(=O)(=O)c1ccc(OCCCNCCc2ccccn2)cc1 [Ex. 34, 2-Isopropyl-1-{4-[3-(2-pyridylethylamino)propyloxy]benzenesulphonyl}indolizine dioxalate]",28.1,82.6,3.3,–,–,–
"CC(C)c1cn2ccccc2c1S(=O)(=O)c1ccc(OCCCN2CCC(c3ccccc3)CC2)cc1 [Ex. 35, 2-Isopropyl-1-{4-[3-(4-phenylpiperidino)propyloxy]-benzenesulphonyl}indolizine]",25,65.6,8.3,–,–,–
"CCCCCCCCN(CCCCCCCC)CCCOc1ccc(S(=O)(=O)c2c(C(C)C)cn3ccccc23)cc1 [Ex. 36, 2-Isopropyl-1-{4-[3-(di-n-octylamino)propyloxy]-benzenesulphonyl}indolizine]",93.7,–,83.3,–,–,–
"CCCCCN(CCCCC)CCCOc1ccc(S(=O)(=O)c2c(C(C)C)cn3ccccc23)cc1 [Ex. 37, 2-Isopropyl-1-{4-[3-(di-n-pentylamino)propyloxy]-benzenesulphonyl}indolizine hydrochloride]",48.7,77.8,–,–,–,–
"CCc1cn2ccccc2c1S(=O)(=O)c1ccc(OCCCn2ccnc2)cc1 [Ex. 38, 2-Ethyl-1-{4-[3-(1-imidazolyl)propyloxy]benzenesulphonyl}indolizine]",85.9,–,–,–,–,–
"CCCCN(CCCC)CCCCOc1ccc(S(=O)(=O)c2c(C(C)C)cn3ccccc23)cc1 [Ex. 39, 2-Isopropyl-1-{4-[4-(di-n-butylamino)butyloxy]benzenesulphonyl}indolizine]",17.9,62.9,–,–,–,–
"CCCCN(CCCC)CCCCCOc1ccc(S(=O)(=O)c2c(CC)cn3ccccc23)cc1 [Ex. 40, 2-Ethyl-1-{4-[5-(di-n-butylamino)pentyloxy]benzenesulphonyl}indolizine]",49.7,87.9,–,–,–,–
"COc1ccc(CN(C)CCCOc2ccc(S(=O)(=O)c3c(C(C)C)cn4ccccc34)cc2)cc1OC [Ex. 41, 2-Isopropyl-1-[4-{3-[N-methyl-N-(3,4-dimethoxybenzyl)-amino]propyloxy}benzenesulphonyl]indolizine]",5.3,26.1,–,–,70.9,–
"COc1ccc(NCCCOc2ccc(S(=O)(=O)c3c(C(C)C)cn4ccccc34)cc2)cc1OC [Ex. 44, 2-Isopropyl-1-{4-[3-(3,4-dimethoxyanilino)propyloxy]benzenesulphonyl}indolizine hydrochloride]",78.9,89.5,29.8,–,–,–
"CCCCN(CCCC)CCCOc1ccc(Sc2ccncc2)cc1.O=C(O)C(=O)O.O=C(O)C(=O)O [Ex. 56, 4-{4-[3-(di-n-butylamino)propyloxy]phenylthio}pyridine dioxalate]",86.2,–,58,–,–,2.6
"COc1ccc(CCN(C)CCCOc2ccc(Sc3ccncc3)cc2)cc1OC [Ex. 57, 4-[4-{3-[N-methyl-N-(3,4-dimethoxy-β-phenethyl)amino]propyloxy}phenylthio]pyridine oxalate]",85,–,59,–,–,3.1
"CCCCN(CCCC)CCCOc1ccc(S(=O)(=O)c2ccccn2)cc1 [Ex. 58, 2-{4-[3-(di-n-butylamino)propyloxybenzenesulphonyl}pyridine oxalate]",88.9,–,84.7,–,–,37
"CCCCN(CCCC)CCCOc1ccc(S(=O)(=O)c2ccncc2)cc1.O=C(O)C(=O)O.O=C(O)C(=O)O [Ex. 60, 4-{4-[3-(di-n-butylamino)propyloxy]benzenesulphonyl}pyridine dioxalate]",89.7,–,75.5,–,–,20.2
"COc1ccc(CCN(C)CCCOc2ccc(S(=O)(=O)c3ccncc3)cc2)cc1OC [Ex. 61, 4-[4-{3-[N-methyl-N-(3,4-dimethoxy-βphenethyl)amino]propyloxy}benzenesulphonyl]pyridine oxalate]",88,–,70.7,–,–,14
"CC(C)(C)NCCCOc1ccc(S(=O)(=O)c2ccccn2)cc1 [Ex. 62, 2-{4-[3-(tertiobutylamino)propyloxy]benzenesulphonyl}pyridine oxalate]",–,–,87.1,–,–,70.6
"CCCCN(CCCC)CCCOc1ccc(S(=O)(=O)c2ccoc2C(C)C)cc1 [Ex. 78, 2-isopropyl-3-{4-[3-(di-n-butylamino)propyloxy]benzenesulphonyl}furan oxalate]",59.4,90.3,4,–,–,–
"CC(C)c1occc1S(=O)(=O)c1ccc(OCCCNC(C)(C)C)cc1 [Ex. 79, 2-isopropyl-3-{4-[3-(tert-butylamino)propyloxy]benzenesulphonyl}furan oxalate]",77.9,94.3,10.3,–,–,–

# — patent publication US5147878A, “Aminoalkoxyphenyl derivatives, process of preparation and compositions containing the same” (Sanofi, priority 1986, dated 1992)
